Data: PMC9767854, “Discovery and mechanism studies of a novel ATG4B inhibitor Ebselen by drug repurposing and its anti-colorectal cancer effects in mice” (Cell & Bioscience, 2022)

Key:
ATG4B C74S mutant = target: T1, ATG4B C74S mutant (Homo sapiens, UniProt Q9Y4P1, C74S); assay: In vitro thermal shift assay, ATG4B C74S mutant; assay type: binding; details: C74S mutant 100 nM, Ebselen 1 μM, compared with DMSO
T1 construct: 6xHis; made in house; host or cells: E. coli BL21(DE3)
Procedure: For in vitro thermal shift assay, recombinant protein ATG4B or C74S mutant (100 nM) was incubated with Ebselen (1 μM) (DMSO as control) in the PCR tubes. The PCR instrument program was set at 25 °C for 10 min, 37 °C to 70 °C for 30 min and followed by cooling tubes for 5 min at room temperature. Then centrifuged at 12,000 rpm for 10 min at 4 °C, soluble fractions were separated from precipitates to be analyzed by SDS-PAGE and immunoblotting.

ATG4B = target: T2, ATG4B (Homo sapiens, UniProt Q9Y4P1); assay: ATG4B oligomerization by non-reducing electrophoresis; assay type: biochemical; details: ATG4B 5 μM; Ebselen 5, 25, 50 μM or FMK-9a 50 μM; 0.5, 1, 3 h
T2 construct: 6xHis; made in house; host or cells: E. coli BL21(DE3)
T2 sequence (Q9Y4P1 1-393): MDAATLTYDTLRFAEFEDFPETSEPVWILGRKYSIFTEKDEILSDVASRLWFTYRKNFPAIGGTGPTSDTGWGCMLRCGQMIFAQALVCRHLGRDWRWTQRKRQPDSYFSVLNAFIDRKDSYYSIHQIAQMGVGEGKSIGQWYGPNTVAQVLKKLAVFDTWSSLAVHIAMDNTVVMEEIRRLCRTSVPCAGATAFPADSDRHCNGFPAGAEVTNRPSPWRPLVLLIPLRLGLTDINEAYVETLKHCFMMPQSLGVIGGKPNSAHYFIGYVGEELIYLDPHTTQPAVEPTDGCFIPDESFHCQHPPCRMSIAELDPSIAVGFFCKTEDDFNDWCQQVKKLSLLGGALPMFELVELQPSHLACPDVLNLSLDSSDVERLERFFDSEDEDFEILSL
Excerpt: The aggregates formed could be reversibly regulated by a reducing agent, because an assay to add dithiothreitol (DTT) into the reaction was operated. […] Furthermore, we also evaluated the redox properties of analogues on ATG4B.

[1] = target: T3, ATG4B 2CS (C292/361S) mutant (Homo sapiens, UniProt Q9Y4P1, C292S/C361S); assay: FRET-based assay, ATG4B 2CS mutant; assay type: biochemical; details: Ebselen 0.5 μM, 15-90 min; read-out: inhibition rate against ATG4B 2CS
T3 construct: 6xHis; made in house; host or cells: E. coli BL21(DE3)
Procedure: FRET-based assay for ATG4B or ATG4A activity was operated as previously described [5, 17]. Briefly, Recombinant protein ATG4B (0.75 μg/ml) or ATG4A (5 μg/ml) was incubated with compounds in reaction buffer (150 mM NaCl, 20 mM Tris–HCl, pH 8.0, 0.1% CHAPS, 1 mM EDTA) at 37 °C. After 30 min, substrate FRET-GATE-16 (50 μg/ml) was added to a final volume of 50 μl. The reaction was recorded via relative fluorescence intensity ratio of 527 nm/477 nm (RFU). The final inhibition rate of the compound for ATG4 was calculated as: (RFUcompound-RFUNC)/(RFUCON-RFUNC) × 100%; respectively, NC as negative control without inhibitor, CON as control without enzymes. For ATG4 activity determination in cells and tissues, cells or separated tumor samples were homogenized in a native lysis buffer (150 mM NaCl, 20 mM Tris–HCl, pH 7.6, 1% TritonX-100, 1 mM EDTA) without protease inhibitors. Then 5 μg total proteins from each sample was added into FRET assay system after clean supernatant proteins were separated. The reaction was recorded via relative fluorescence intensity ratio of 527 nm/477 nm. Finally, the inhibition rates of ATG4B were calculated with the vehicle or CM group as the negative control (ATG4 activity defined as 100%).

WT HCT116 = assay: Cell viability by CCK-8 assay, WT HCT116; assay type: cell-based
Procedure: (§1) WT/ATG4B KO HCT116, WT/ATG4B KO SW620 and WT/ATG4B KO RKO cells were seeded in 96-well plate at 1000–1500 cells per well for cell viability assay, and seed in 6-well plate at 1 × 10^5 cells per well for cell number counting. After 12 h, the indicated drugs were added to the medium and cultured for another 96 h. Total viable cell numbers were counted by a cell counter (BioRAD), and cell viability was determined by cell-count-8 assay kit (CCK-8, Bimake, B34304) according to the manufacturer’s protocol.

HCT116 cells = assay: Cell counting and colony formation assays; assay type: cell-based
Procedure: For colony formation, WT HCT116 and ATG4B KO HCT116 cells were seeded in 6-well plates at 800 cells per well and cultured for 9–12 days, respectively. Concurrently, medium containing indicated compounds were replaced every 3 days, before the cells were fixed in 4% paraformaldehyde for 20 min and washed with PBS three times. Then colonies were stained with crystal violet (Beyotime, C0121) for 1 h and excess dyes were washed with PBS. Eventually, colonies more than 1 mm were counted in at least three independent experiments.
as §1

[2] = Body weight and organ H&E in xenografted mice; assay type: in vivo, BALB/c-nu/nu mice; details: 5, 10, 20 mg/kg i.p. every two days
Procedure: (§2) Four- to six-weeks-old BALB/C nu/nu female mice purchased from the Experimental Animal Center of Sun Yat-Sen University, were approved by the Animal Ethics Committee at Sun Yat-sen University and kept in specific-pathogen-free environment. Approximately 2 × 10^6 SW620 cells or 1 × 10^7 HCT116 cells were injected subcutaneously into the dorsal flank on the right side of the mice. Different groups were divided randomly when the tumor volume was approximately 60–80 mm^3, before drug administration intraperitoneally (i.p.). Tumor volume was measured by calipers and calculated using the equation: 0.5 × length × width^2. At the end of the experiments, the mice were sacrificed and tumors were dissected and weighed. In particular, we employed Servicebio (Wuhan, China) to carry out H&E staining and immunohistochemistry assay.
Supplementary file 13578_2022_944_MOESM1_ESM.docx: Additional file 1: Figure S1. Screening of ATG4B inhibitors based on the approved drugs library by FRET assay. […] (D) Candidate compound number and name correspondence table, and IC50 calculation of nine commercially available compounds for ATG4B by FRET assay. Figure S2. […] Figure S3. […] Figure S5. […] Figure S6.

xenografted tumors = assay: Autophagy, apoptosis and Ki67 markers in xenografted tumors; assay type: in vivo, BALB/c-nu/nu mice
Procedure: Fig. 7 Ebselen suppresses colorectal cancer tumor growth. A A brief diagram of the animal experiment for subcutaneous xenografted tumor model. 2 × 10^6 (2e^6) SW620 cells were xenografted into BALB/c-nu/nu mice by subcutaneous injection (s.c.). After 10 days, mice were injected intraperitoneally (i.p.) with indicated doses of Ebselen every two days, and monitoring of tumor volume and body weight changes were performed. B–D Representative tumor images and tumor weight at the end time point were captured from SW620 cell-based xenografts. Mean tumor weight ± SEM (C) and mean tumor volume ± SEM (D) were shown. E The inhibitory effect of ATG4 in xenografted tumors was detected by FRET assay. F, I The protein level of autophagy and apoptosis in xenografted tumors were detected by western blot. Representative results were shown and the statistical results of each group were obtained from seven mice. J, K The immunohistochemistry analysis of Ki67 in xenografted tumors (group vehicle and Ebselen 10 mg/kg). Bar = 20 μm. The positive Ki67 area rate was obtained from the ratio of positive Ki67 area to total cell area by Image J
as §2

T1 sequence (Q9Y4P1 whole entry C74S): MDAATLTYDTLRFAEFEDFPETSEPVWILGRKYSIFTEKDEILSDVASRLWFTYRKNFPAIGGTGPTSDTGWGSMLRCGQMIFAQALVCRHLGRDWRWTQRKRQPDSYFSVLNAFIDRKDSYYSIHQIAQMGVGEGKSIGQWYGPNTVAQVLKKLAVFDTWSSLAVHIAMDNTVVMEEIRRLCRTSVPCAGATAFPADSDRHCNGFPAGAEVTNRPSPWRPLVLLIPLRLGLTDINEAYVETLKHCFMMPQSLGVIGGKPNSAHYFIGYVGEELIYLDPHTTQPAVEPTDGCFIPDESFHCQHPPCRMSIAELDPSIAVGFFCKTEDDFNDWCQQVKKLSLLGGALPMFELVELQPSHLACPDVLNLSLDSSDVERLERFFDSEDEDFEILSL
T3 sequence (Q9Y4P1 whole entry C292S/C361S): as the sequence (Q9Y4P1 whole entry C74S) above, with S74C, C292S, C361S counted along it

O=c1c2ccccc2[se]n1-c1ccccc1 [Ebselen]
thermal stability of C74S mutant (ATG4B C74S mutant): still a little increased | ATG4B oligomerization (ATG4B): oligomerization occurred | inhibition at 0.5 µM [1]: < 90% | inhibition of the viability of CRC cell lines (WT HCT116; Fig. 6F): ~ 50% | IC50 (WT HCT116; Homo sapiens, HCT-116, CCK-8, 96 h): 18.9 µM | cell proliferation and colony formation (HCT116 cells): significantly inhibit | body weight change or organs damage [2]: no obvious mice body weight change or organs damage | Ki67 positivity in tumors (xenografted tumors; Ebselen 10 mg/kg, immunohistochemistry): significant reduction of Ki67 positivity | autophagy flux in tumors (LC3-II, p62) (xenografted tumors; compared with the vehicle group): significantly inhibited | apoptosis of tumors (xenografted tumors; western blot): inhibited the apoptosis of tumors in a dose-dependent manner
